# Assay results: patent US10793576B2, “Compound used as Bruton's tyrosine kinase inhibitor and preparation method and application thereof” (Chengdu Brilliant Pharmaceutical Co., LTD., priority 2017, dated 2020)
# How the values were obtained:
# DOHH2 cells = experiment: Cell proliferation inhibition in vitro, DOHH2 cells by CTG assay; type: cell-based; conditions: Homo sapiens, DOHH-2, 72 hours, read-out: Inhibitions of cell activities IC50 (nM) DOHH2
# Method: (§1) Test Example 2: Determination of the Inhibition of Cell Proliferation Inhibitory Activity in
# (§2) vitro of compounds using different cell lines
# (§3) 2: Preparation of the Compounds:
# (§4) The compounds to be tested were diluted with DMSO to prepare a mother liquor at a final concentration of 10 mM for later use.
# 3.2 Test of DOHH2 Cells by CTG Assay
# (§5) Logarithmic growth phase cells were collected, counted and resuspended in complete medium. The cell concentration was adjusted to a suitable concentration (determined according to the cell density optimization test results), and seeded to 96-well plate and 100 μl of the cell suspension was added to each well. The cells were incubated in an incubator at 37° C., 100% relative humidity and 5% C02 for 24 hours.
# The compounds to be tested were diluted with the medium to the set corresponding action concentration, and the cells were added at 10 µl/well. The cells were incubated in an incubator set at 37° C., 100% relative humidity and 5% C02 for 72 hours.
# The medium was aspirated and discarded, and 30 μl of test reagent was added. The plate was gentle shaken away from the light to lyse the cells.
# (§6) As: OA of the sample (cell+test reagent+test compound)
# (§7) Ac: OA of the negative control (cell+test reagent+DMSO)
# (§8) Ab: OA of the positive control (medium+test reagent+DMSO)
# (§9) IC50 curve fitting was performed using the software Graphpad Prism 5 or XLfit and IC50 values were calculated.
# BTK kinase = BTK kinase (Homo sapiens (Human), UniProt Q06187); experiment: In vitro assay for the inhibition of BTK kinase activity (Mobility-Shift Assay); type: biochemical
# Source text: Mobility-Shift Assay, which is microfluidic chip technology, applies the basic concept of capillary electrophoresis to microfluidic environments. The substrate used for the experiment is a polypeptide with a fluorescent label. Under the action of enzyme in the reaction system, the substrate is transformed into a product, and the charge the substrate carries also changes accordingly. The use of the charge difference between the substrate and the product involved in Mobility-Shift Assay achieves the separating of the two, and they are tested respectively. The test results are expressed by conversion rates.
# (3) 100% DMSO was added to the positive control well and the negative control well, respectively;
# OCI-LY10 cells = experiment: Cell proliferation inhibition in vitro, OCI-ly10 cells by CCK-8 method; type: cell-based; conditions: Homo sapiens, 72 hours, read-out: Inhibitions of cell activities IC50 (nM) OCI-LY10
# Method: as §1, §2, §3, §4
# (§10) 3.1. Test of TMD8 and OCI-ly10 Cells by CCK-8 Method
# as §5
# (§11) The compounds to be tested were diluted with the medium to the set corresponding action concentration, and the cells were added at 25 µl/well. The cells were incubated in an incubator at 37° C., 100% relative humidity and 5% C02 for 72 hours.
# (§12) The medium was aspirated and discarded, and a complete medium containing 10% of the test reagent was added and the obtained system was incubated in a 37° C. incubator for 1 hour-4 hours.
# as §6, §7, §8, §9
# TMD8 cells = experiment: Cell proliferation inhibition in vitro, TMD8 cells by CCK-8 method; type: cell-based; conditions: Homo sapiens, 72 hours, read-out: Inhibitions of cell activities IC50 (nM) TMD8
# Method: as §1, §2, §3, §4, §10, §5, §11, §12, §6, §7, §8, §9
# Chain of BTK kinase (Q06187 whole entry): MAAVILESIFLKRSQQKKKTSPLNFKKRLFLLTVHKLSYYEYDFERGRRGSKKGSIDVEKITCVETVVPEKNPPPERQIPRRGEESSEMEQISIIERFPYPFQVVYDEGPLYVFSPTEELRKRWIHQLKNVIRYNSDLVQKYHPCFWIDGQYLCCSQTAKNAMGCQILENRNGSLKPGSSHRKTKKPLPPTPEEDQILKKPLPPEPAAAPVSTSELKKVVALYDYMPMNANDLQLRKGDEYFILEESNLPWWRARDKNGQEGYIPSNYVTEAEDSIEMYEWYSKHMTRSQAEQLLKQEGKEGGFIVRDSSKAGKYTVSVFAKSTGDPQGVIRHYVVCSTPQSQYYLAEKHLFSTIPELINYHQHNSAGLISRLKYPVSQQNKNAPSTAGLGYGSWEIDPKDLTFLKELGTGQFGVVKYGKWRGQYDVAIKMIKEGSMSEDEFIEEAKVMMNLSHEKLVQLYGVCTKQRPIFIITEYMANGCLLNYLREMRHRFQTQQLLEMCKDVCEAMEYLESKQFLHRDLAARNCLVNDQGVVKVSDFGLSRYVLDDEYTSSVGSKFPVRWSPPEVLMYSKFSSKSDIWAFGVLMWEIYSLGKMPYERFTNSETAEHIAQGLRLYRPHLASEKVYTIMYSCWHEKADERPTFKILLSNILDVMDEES
SMILES,IC50 (BTK kinase),IC50 (OCI-LY10 cells),IC50 (DOHH2 cells),IC50 (TMD8 cells)
CC#CC(=O)N1C2CCC1(c1nc(-c3ccc(C(=O)Nc4ccccn4)cc3)c3c(N)nccn13)COC2 (stereo not shown) [Example 12],14 nM,7.4 nM,129 nM,4.3 nM
CC#CC(=O)N1C2C[C@@H](C1c1nc(-c3ccc(C(=O)Nc4cc(C(F)(F)F)ccn4)cc3)c3c(N)nccn13)N(C(C)C)C2 (stereo partly shown) [Example 57],59 nM,–,–,–
C=CC(=O)N1C[C@H]2[C@@H]([C@H]1c1nc(-c3ccc(C(=O)Nc4cc(C)ccn4)cc3)c3c(N)nccn13)C2(C)C [Example 60],51 nM,–,–,–
C=CC(=O)N1C(c2nc(-c3ccc(C(=O)Nc4cc(C)ccn4)cc3)c3c(N)nccn23)CC2CC21 (stereo not shown) [Example 64],87 nM,–,–,–
C=CC(=O)N1C2CN[C@@H](C2)C1c1nc(-c2ccc(C(=O)Nc3cc(C)ccn3)cc2)c2c(N)nccn12 (stereo partly shown) [Example 66],34 nM,–,> 1000 nM,–
C=CC(=O)N1C2CN[C@@H](C2)C1c1nc(-c2ccc(C(=O)Nc3cc(Cl)ccn3)cc2)c2c(N)nccn12 (stereo partly shown) [Example 72],97 nM,–,–,–
C=CC(=O)N1C[C@H]2[C@@H]([C@H]1c1nc(-c3ccc(C(C)(O)c4ccccc4)cc3)c3c(N)nccn13)C2(C)C (stereo partly shown) [Example 75],57 nM,–,–,–
CC#CC(=O)N1C[C@H]2[C@@H]([C@H]1c1nc(-c3ccc(C(C)(O)c4ccccc4)cc3)c3c(N)nccn13)C2(C)C (stereo partly shown) [Example 76],46 nM,–,–,–
CC#CC(=O)N1CC2CCCC2C1c1nc(-c2ccc(C(C)(O)c3ccccc3)cc2)c2c(N)nccn12 (stereo not shown) [Example 78],18.4 nM,–,–,–
C=CC(=O)N1C(c2nc(-c3ccc(C(C)(O)c4ccccc4)cc3)c3c(N)nccn23)CC2CC21 (stereo not shown) [Example 81],178 nM,–,–,–
CC#CC(=O)N1C(c2nc(-c3ccc(C(C)(O)c4ccccc4)cc3)c3c(N)nccn23)CC2CC21 (stereo not shown) [Example 82],382 nM,–,–,–
C=CC(=O)N1C2CN[C@@H](C2)C1c1nc(-c2ccc(C(C)(O)c3ccccc3)cc2)c2c(N)nccn12 (stereo partly shown) [Example 86],29 nM,–,917 nM,–
CC#CC(=O)N1C2CN[C@@H](C2)C1c1nc(-c2ccc(C(C)(O)c3ccccc3)cc2)c2c(N)nccn12 (stereo partly shown) [Example 87],42 nM,–,786 nM,–
C=CC(=O)N1C2C[C@@H](C1c1nc(-c3ccc(C(C)(O)c4ccccc4)cc3)c3c(N)nccn13)N(C)C2 (stereo partly shown) [Example 88],51 nM,–,–,–
C=CC(=O)N1C2C[C@@H](C1c1nc(-c3ccc(C(C)(O)c4ccccc4)cc3)c3c(N)nccn13)N(C(C)=O)C2 (stereo partly shown) [Example 90],79 nM,–,–,–
C=CC(=O)N1C(c2nc(-c3ccc(Oc4ccccc4)cc3)c3c(N)nccn23)CC2CC21 (stereo not shown) [Example 100],67 nM,–,–,–
CC#CC(=O)N1C(c2nc(-c3ccc(Oc4ccccc4)cc3)c3c(N)nccn23)CC2CC21 (stereo not shown) [Example 101],77 nM,–,–,–
C=CC(=O)N1CCC2CC21c1nc(-c2ccc(Oc3ccccc3)cc2)c2c(N)nccn12 (stereo not shown) [Example 102],175 nM,–,–,–
CC#CC(=O)N1CCC2CC21c1nc(-c2ccc(Oc3ccccc3)cc2)c2c(N)nccn12 (stereo not shown) [Example 103],271 nM,–,–,–

# The next lines start with results.
IC50 (BTK kinase),IC50 (OCI-LY10 cells),SMILES,IC50 (DOHH2 cells),IC50 (TMD8 cells)
83 nM,–,"CC#CC(=O)N1CC2(CC2)C[C@H]1c1nc(-c2ccc(C(=O)Nc3ccccn3)cc2)c2c(N)nccn12 [Example 1, (S)-4-(8-amino-3-(5-(but-2-ynoyl)-5-azaspiro[2.4]heptan-6-yl)imidazo[1,5-a]pyrazin-1-yl)-N-(pyridin-2-yl)benzamide]",> 1000 nM,–
24 nM,–,"C=CC(=O)N1CC2(CC2)C[C@H]1c1nc(-c2ccc(C(=O)Nc3ccccn3)cc2)c2c(N)nccn12 [Example 2, (S)-4-(3-(5-acryloyl-5-azaspiro[2.4]heptan-6-yl)-8-aminoimidazo[1,5-a]pyrazin-1-yl)-N-(pyridin-2-yl)benzamide]",917 nM,–
4.5 nM,3.5 nM,CC#CC(=O)N1CC2CCCC2C1c1nc(-c2ccc(C(=O)Nc3ccccn3)cc2)c2c(N)nccn12 (stereo not shown) [Example 4],673 nM,2.1 nM
9.1 nM,0.21 nM,CC#CC(=O)N1C[C@H]2[C@@H]([C@H]1c1nc(-c3ccc(C(=O)Nc4ccccn4)cc3)c3c(N)nccn13)C2(C)C [Example 6],> 1000 nM,5.4 nM
2.8 nM,0.13 nM,C=CC(=O)N1CC2CC1(c1nc(-c3ccc(C(=O)Nc4ccccn4)cc3)c3c(N)nccn13)CO2 (stereo not shown) [Example 9],74.3 nM,0.2 nM
72 nM,2.1 nM,CC#CC(=O)N1CC2CC1(c1nc(-c3ccc(C(=O)Nc4ccccn4)cc3)c3c(N)nccn13)CO2 (stereo not shown) [Example 10],> 1000 nM,6.3 nM
3.3 nM,0.67 nM,C=CC(=O)N1C2CN[C@@H](C2)C1c1nc(-c2ccc(C(=O)Nc3ccccn3)cc2)c2c(N)nccn12 (stereo partly shown) [Example 13],138 nM,0.38 nM
48 nM,–,CC#CC(=O)N1C2C[C@@H](C1c1nc(-c3ccc(C(=O)Nc4ccccn4)cc3)c3c(N)nccn13)N(C(C)C)C2 (stereo partly shown) [Example 17],> 1000 nM,–
57 nM,–,C=CC(=O)N1CCC2CC21c1nc(-c2ccc(C(=O)Nc3ccccn3)cc2)c2c(N)nccn12 (stereo not shown) [Example 32],> 1000 nM,–
78 nM,–,C=CC(=O)N1CCC2CC21c1nc(-c2ccc(C(=O)Nc3cc(C(F)(F)F)ccn3)cc2)c2c(N)nccn12 (stereo not shown) [Example 58],–,–
97 nM,–,CC#CC(=O)N1CCC2CC21c1nc(-c2ccc(C(=O)Nc3cc(C(F)(F)F)ccn3)cc2)c2c(N)nccn12 (stereo not shown) [Example 59],–,–
31 nM,–,CC#CC(=O)N1C[C@H]2[C@@H]([C@H]1c1nc(-c3ccc(C(=O)Nc4cc(C)ccn4)cc3)c3c(N)nccn13)C2(C)C [Example 61],–,–
57 nM,–,CC#CC(=O)N1C2CC[C@@H](C2)C1c1nc(-c2ccc(C(=O)Nc3cc(C)ccn3)cc2)c2c(N)nccn12 (stereo partly shown) [Example 63],–,–
58 nM,–,CC#CC(=O)N1C(c2nc(-c3ccc(C(=O)Nc4cc(C)ccn4)cc3)c3c(N)nccn23)CC2CC21 (stereo not shown) [Example 65],–,–
69 nM,–,CC#CC(=O)N1C2CN[C@@H](C2)C1c1nc(-c2ccc(C(=O)Nc3cc(C)ccn3)cc2)c2c(N)nccn12 (stereo partly shown) [Example 67],> 1000 nM,–
46 nM,–,CC#CC(=O)N1CCC2CC21c1nc(-c2ccc(C(C)(O)c3ccccc3)cc2)c2c(N)nccn12 (stereo not shown) [Example 83],–,–
81 nM,–,"CN(C/C=C/C(=O)N1CC2(CC2)C[C@H]1c1nc(-c2ccc(C(=O)Nc3ccccn3)cc2)c2c(N)nccn12)C1CC1 [Example 114, (S,E)-4-(8-amino-3-(5-(4-(cyclopropyl(methyl)amino)-2-butenoyl)-5-azaspiro[2.4]heptan-6-yl)imidazo[1,5-a]pyrazin-1-yl)-N-(pyridin-2-yl)benzamide]",–,–
276 nM,–,"CC(C)/C=C(/C#N)C(=O)N1CC2(CC2)C[C@H]1c1nc(-c2ccc(C(=O)Nc3ccccn3)cc2)c2c(N)nccn12 [Example 116, (S,Z)-4-(8-amino-3-(5-(2-cyano-4-methyl-2-pentenoyl)-5-azaspiro [2.4]heptan-6-yl)imidazo[1,5-a]pyrazin-1-yl)-N-(pyridin-2-yl)benzamide]",–,–
104 nM,–,"CC(C)/C=C(/C#N)C(=O)N1CC2CCCC2[C@H]1c1nc(-c2ccc(C(=O)Nc3ccccn3)cc2)c2c(N)nccn12 (stereo partly drawn) [Example 117, 4-(8-amino-3-((1S)-2-((Z)-2-cyano-4-methyl-2-pentenoyl)octahydrocyclopenta [c]pyrrol-1-yl)imidazo[1,5-a]pyrazin-1-yl)-N-(pyridin-2-yl)benzamide]",–,–
43 nM,–,"CC#CC(=O)N1CC2CCC1(c1nc(-c3ccc(C(=O)Nc4ccccn4)cc3)c3c(N)nccn13)CC2 [Example 121, 4-(8-amino-3-(2-(but-2-ynoyl)-2-azabicyclo[2.2.2]octan-1-yl)imidazo[1,5-a]pyrazin-1-yl)-N-(pyridin-2-yl)benzamide]",–,–
49 nM,–,"C=CC(=O)N1CC2CCC1(c1nc(-c3ccc(C(=O)Nc4ccccn4)cc3)c3c(N)nccn13)C2 (stereo not shown) [Example 122, 4-(3-(2-acryloyl-2-azabicyclo[2.2.1]heptan-1-yl)-8-aminoimidazo[1,5-a]pyrazin-1-yl)-N-(pyridin-2-yl)benzamide]",–,–
72 nM,–,"CC#CC(=O)N1CC2CCC1(c1nc(-c3ccc(C(=O)Nc4ccccn4)cc3)c3c(N)nccn13)C2 (stereo not shown) [Example 123, 4-(8-amino-3-(2-(but-2-ynoyl)-2-azabicyclo[2.2.1]heptan-1-yl)imidazo[1,5-a]pyrazin-1-yl)-N-(pyridin-2-yl)benzamide]",–,–
